Test results: US6825209B2, “Compounds having unique CB1 receptor binding selectivity and methods for their production and use” (Research Triangle Institute, priority 2002, dated 2004)
Read-outs that look alike come from different tables or passages of the source.

How the values were obtained:
CB1 receptor = biological target: T1, CB1 receptor (Rattus norvegicus, UniProt P20272); experiment: Radioligand displacement in whole rat brain (CB1) membrane preparations; type: binding; conditions: Table 4, parallel synthesis analogs; for Ki: n = 1, concentration assumes 100% yield; for Max. Disp. %, 3H-CP55940 / Max. Disp. %, 3H-SR141716A / Max. Disp. %, 3H-WIN55212-2: n = 1
T1 construct: Whole rat brains or dissected regions from live CD rats; tissue Charles River or Pel-Freez Biologicals; host or cells: whole rat brain (CD rats), P2 membrane
T1 sequence (P20272 whole entry): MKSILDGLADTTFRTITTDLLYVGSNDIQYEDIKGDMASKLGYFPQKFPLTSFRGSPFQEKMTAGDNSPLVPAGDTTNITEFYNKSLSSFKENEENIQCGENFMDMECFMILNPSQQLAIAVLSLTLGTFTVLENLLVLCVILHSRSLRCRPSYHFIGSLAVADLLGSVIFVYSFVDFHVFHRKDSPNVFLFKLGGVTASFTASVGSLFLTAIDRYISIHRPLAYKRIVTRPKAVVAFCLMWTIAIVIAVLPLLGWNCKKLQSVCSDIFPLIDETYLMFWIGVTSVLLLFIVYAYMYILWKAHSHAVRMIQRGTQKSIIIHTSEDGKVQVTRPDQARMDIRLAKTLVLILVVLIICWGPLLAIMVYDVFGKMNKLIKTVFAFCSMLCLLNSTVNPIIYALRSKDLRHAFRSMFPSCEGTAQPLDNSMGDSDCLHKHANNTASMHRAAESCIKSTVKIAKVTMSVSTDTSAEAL
Description: CB1 receptor affinity in rat brain.
Methods—membrane preparation from brain. The methods for tissue preparation are essentially those described by Devane et al. (1988) as modified by Compton et al. (1993) and later by Thomas et al. (1998). Whole rat brains or dissected regions from live CD rats from Charles River or Pel-Freez Biologicals (Rogers, Ark.), or human brain sections obtained from the National Disease Research Institute, were allowed to thaw to room temperature on ice. Both whole brain and dissected brain regions were used because different brain regions may express different cannabinoid receptor subtypes (Skaper et al., 1996; Thomas et al., 1998). The tissue was homogenized with a Kontes Potter-Elvehjem glass-Teflon grinding system (Fisher Scientific, Springfield, N.J.) in buffer 1 (320 mM sucrose, 2 mM EDTA, 5 mM MgCl2. The homogenate was centrifuged at 1600 g for 10 min. The supernatant was saved and combined with the two subsequent supernatants obtained from washing and 1600 g centrifugation of the P1 pellet. The combined supernatant fractions were then centrifuged at 39,000 g for 15 min. The P2 pellet was resuspended in 50 mL of buffer 2 (50 mM Tris.HCl, 2 mM EDTA, 5 mM MgCl2, pH 7.0), incubated at 37° C. for 10 min, then centrifuged at 23,000 g for 10 min. The P2 membrane was resuspended in 50 mL of buffer 2, incubated at 30° C. for 40 min, then centrifuged at 11,000 g for 15 min. The final wash-treated P2 pellet was resuspended in assay buffer 3 (50 mM Tris.HCl, 1 mM EDTA, 3 MM MgCl2, pH 7.4). Protein concentrations were determined by the method of Bradford (1976) using Coomassie brilliant blue dye (Bio-Rad, Richmond, Calif.) and BSA standards (bovine serum albumin, fatty acid free, Sigma Chemical Co., St. Louis, Mo.) prepared in assay buffer 3. The membrane preparation was divided into aliquots and stored at −80° C. For use in the binding assay, an aliquot of frozen membranes was thawed on ice and diluted to a concentration of ca. 0.2 mg/mL in assay buffer.
Methods—binding assay in brain membrane preparation. The methods for ligand binding are essentially those described by Devane et al. (1988) with the exception that we used a filtration assay. […] All cannabinoid analogs were prepared by suspension in buffer A from a 1-5 mg/mL ethanolic stock. Following incubation at 30° C. for 1 h, binding was terminated by vacuum filtration through pretreated filters in a 96-well sampling manifold (Millipore, Bedford, Mass.). Reaction vessels were washed at least 3 times with 1 mL of ice cold buffer B (50 mM Tris.HCl, 1 mg/mL BSA). The filter plates were air-dried and sealed on the bottom. Liquid scintillant was added to the wells and the top sealed. After incubating the plates in cocktail for at least 2 h, the radioactivity present was determined by liquid scintillation spectrometry. Assays were done in duplicate, and results represent the combined data of three to six independent experiments. All assays were performed in polypropylene test tubes. The GF/C glassfiber filter plates (Packard, Meriden, Conn.) were pretreated in buffer B for at least 1 h.
(§1) Data analysis. Saturation and displacement data were analyzed by unweighted nonlinear regression of receptor binding data. For displacement studies, curve-fitting and IC50 calculation were done with GraphPad Prism (GraphPad Software, Inc., San Diego, Calif.), which fits the data to one and two-site models and compares the two fits statistically. A similar approach was used for the analysis of isotherm data for calculation of Kd's. A two-site fit was accepted only if it was statistically significant (p<0.05) and the following results were not observed:
(§2) IC50 values were then converted to Ki values by reported methods (Cheng and Prusoff, 1973). The statistical evaluation of curve-fitting data allowed for a non-arbitrary conclusion based on the displacement data.

human CB1 receptor = biological target: T2, human CB1 receptor (Homo sapiens, UniProt P21554); experiment: Radioligand displacement in human CB1 receptor-transfected cells (HEK-293); type: binding
T2 construct: expressed in transfected cells; host or cells: HEK-293
T2 sequence (P21554 whole entry): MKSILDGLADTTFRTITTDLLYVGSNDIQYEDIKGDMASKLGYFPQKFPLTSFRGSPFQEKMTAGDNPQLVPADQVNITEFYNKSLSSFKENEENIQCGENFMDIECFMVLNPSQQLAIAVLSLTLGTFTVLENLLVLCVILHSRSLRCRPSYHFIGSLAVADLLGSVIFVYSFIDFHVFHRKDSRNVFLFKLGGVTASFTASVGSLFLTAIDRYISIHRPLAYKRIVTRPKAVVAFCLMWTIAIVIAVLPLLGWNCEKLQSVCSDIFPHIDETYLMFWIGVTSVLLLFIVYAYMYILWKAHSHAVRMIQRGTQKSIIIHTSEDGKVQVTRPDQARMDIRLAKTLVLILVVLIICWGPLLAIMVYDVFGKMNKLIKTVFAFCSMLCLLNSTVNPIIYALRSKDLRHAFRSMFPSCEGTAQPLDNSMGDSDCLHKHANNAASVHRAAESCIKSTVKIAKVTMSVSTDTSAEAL
Procedure: Human CB1 receptor affinity. The alkyl amide analogs of the present invention were examined using transfected cell lines expressing the human CB1 receptor (Table 3).
Methods—binding assay in transfected cell lines. The methods used for performing binding assays in transfected cells expressing human CB1 or CB2 receptors are those used above. The CB1 receptor involved a HEK-293 expression system whereas the CB2 receptor was expressed in CHO-K1 cells. […] The incubations and separations were then performed as described above for rat brain membrane preparations.
as §1, §2

[1] = displacement of 3H-CP55940, whole rat brain, 3H-CP55940
[2] = displacement of 3H-SR141716A, whole rat brain, 3H-SR141716A
[3] = displacement of 3H-WIN55212-2, whole rat brain, 3H-WIN55212-2
[4] = displacement of 3H-CP55940, human CB1 transfected cells, 3H-CP55940, Table 5, parallel synthesis analogs, concentration assumes 100% yield
[5] = displacement of 3H-SR141716A, human CB1 transfected cells, 3H-SR141716A, Table 5, parallel synthesis analogs, concentration assumes 100% yield
[6] = displacement of 3H-WIN55212-2, human CB1 transfected cells, 3H-WIN55212-2, Table 5, parallel synthesis analogs, concentration assumes 100% yield
[7] = human CB1 transfected cells, 3H-CP55940, Table 5, parallel synthesis analogs
[8] = human CB1 transfected cells, 3H-SR141716A, Table 5, parallel synthesis analogs
[9] = human CB1 transfected cells, 3H-WIN55212-2, Table 5, parallel synthesis analogs

Row | SMILES | Ki (CB1 receptor; [1]) | Ki (CB1 receptor; [2]) | Ki (CB1 receptor; [3]) | Max. Disp. %, 3H-CP55940 (CB1 receptor; whole rat brain, 3H-CP55940) | Max. Disp. %, 3H-SR141716A (CB1 receptor; whole rat brain, 3H-SR141716A) | Max. Disp. %, 3H-WIN55212-2 (CB1 receptor; whole rat brain, 3H-WIN55212-2) | Ki (human CB1 receptor; [4]) | Ki (human CB1 receptor; [5]) | Ki (human CB1 receptor; [6]) | Max. Disp. %, 3H-CP55940 (human CB1 receptor; [7]) | Max. Disp. %, 3H-SR141716A (human CB1 receptor; [8]) | Max. Disp. %, 3H-WIN55212-2 (human CB1 receptor; [9]) | Max. Disp. %, 3H-CP55940 (human CB1 receptor) | Max. Disp. %, 3H-SR141716A (human CB1 receptor) | Max. Disp. %, 3H-WIN55212-2 (human CB1 receptor) | Ki (human CB1 receptor; displacement of 3H-CP55940) | Ki (human CB1 receptor; displacement of 3H-SR141716A) | Ki (human CB1 receptor; displacement of 3H-WIN55212-2)
1 | CCCCCC(C)NC(=O)c1nn(-c2ccc(Cl)cc2Cl)c(-c2ccc(Cl)cc2)c1C (centres unmarked) [AKS-10262-1] | 10.7 nM | 2.6 nM | 1.84 nM | 98.2% | 96.5% | 89.0% | – | – | – | – | – | – | 80.7% | 95.6% | 100% | 11.9 nM | 2.02 nM | 54.6 nM
2 | CC(C)=CCC/C(C)=C/CNC(=O)c1nn(-c2ccc(Cl)cc2Cl)c(-c2ccc(Cl)cc2)c1C [AKS-10262-2] | 48.1 nM | 20.1 nM | 40.5 nM | 84.2% | 95.7% | 89.0% | 26.8 nM | 6.8 nM | 211 nM | 84.2% | 95.7% | 78.3% | – | – | – | – | – | –
3 | CCCCCCCCCC(C)NC(=O)c1nn(-c2ccc(Cl)cc2Cl)c(-c2ccc(Cl)cc2)c1C (centres unmarked) [AKS-10262-3] | 27.1 nM | 9.7 nM | 22.3 nM | 83.7% | 97.3% | 82.4% | 41.1 nM | 7 nM | 22.2 nM | 77.7% | 90.0% | 76.1% | – | – | – | – | – | –
4 | CCCCCCC(C)NC(=O)c1nn(-c2ccc(Cl)cc2Cl)c(-c2ccc(Cl)cc2)c1C (centres unmarked) [AKS-10262-4] | 26.2 nM | 10.8 nM | 5.8 nM | 83.9% | 91.3% | 53.7% | – | – | – | – | – | – | 79.5% | 91.5% | 0.0% | 26.3 nM | 2.8 nM | –
5 | Cc1c(C(=O)NC(C)CCCC(C)C)nn(-c2ccc(Cl)cc2Cl)c1-c1ccc(Cl)cc1 (centres unmarked) [AKS-10262-7] | 8.97 nM | 3.57 nM | 5.76 nM | 89.6% | 95.1% | 87.7% | – | – | – | – | – | – | 82.5% | 93.7% | 67.9% | 7.39 nM | 2.1 nM | 64.2 nM

Now from value to compound, other results behind:

Row | Ki (CB1 receptor; [1]) | Ki (CB1 receptor; [2]) | Ki (CB1 receptor; [3]) | Max. Disp. %, 3H-CP55940 (CB1 receptor; whole rat brain, 3H-CP55940) | Max. Disp. %, 3H-SR141716A (CB1 receptor; whole rat brain, 3H-SR141716A) | Max. Disp. %, 3H-WIN55212-2 (CB1 receptor; whole rat brain, 3H-WIN55212-2) | Ki (human CB1 receptor; [4]) | Ki (human CB1 receptor; [5]) | Ki (human CB1 receptor; [6]) | Max. Disp. %, 3H-CP55940 (human CB1 receptor; [7]) | Max. Disp. %, 3H-SR141716A (human CB1 receptor; [8]) | Max. Disp. %, 3H-WIN55212-2 (human CB1 receptor; [9]) | SMILES | Max. Disp. %, 3H-CP55940 (human CB1 receptor) | Max. Disp. %, 3H-SR141716A (human CB1 receptor) | Max. Disp. %, 3H-WIN55212-2 (human CB1 receptor) | Ki (human CB1 receptor; displacement of 3H-CP55940) | Ki (human CB1 receptor; displacement of 3H-SR141716A) | Ki (human CB1 receptor; displacement of 3H-WIN55212-2)
6 | 19.6 nM | 8.6 nM | 25.8 nM | 89.5% | 95.7% | 85.1% | 9.6 nM | 3.8 nM | 78.6 nM | 91.4% | 95.9% | 100% | CCCCCC(CC)NC(=O)c1nn(-c2ccc(Cl)cc2Cl)c(-c2ccc(Cl)cc2)c1C (centres unmarked) [AKS-10262-5] | – | – | – | – | – | –
7 | 9.6 nM | 2.3 nM | 13.7 nM | 91.4% | 96.3% | 89.9% | 9.4 nM | 2.2 nM | 23.9 nM | 86.5% | 100% | 78.7% | CCC(C)CC(C)NC(=O)c1nn(-c2ccc(Cl)cc2Cl)c(-c2ccc(Cl)cc2)c1C (centres unmarked) [AKS-10262-6] | – | – | – | – | – | –
8 | 3.37 nM | 2.81 nM | 28.6 nM | 76.6% | 96.2% | 94.1% | 13.2 nM | 5.48 nM | 33.2 nM | 76.8% | 93.6% | 91.5% | Cc1c(C(=O)NC(C)CCC(C)C)nn(-c2ccc(Cl)cc2Cl)c1-c1ccc(Cl)cc1 (centres unmarked) [AKS-10262-8] | – | – | – | – | – | –
9 | 19.9 nM | 5.52 nM | 10.3 nM | 90.1% | 96.0% | 81.1% | 25.2 nM | 3.28 nM | 16.9 nM | 88.1% | 96.7% | 77.3% | Cc1c(C(=O)NCCC(c2ccccc2)c2ccccc2)nn(-c2ccc(Cl)cc2Cl)c1-c1ccc(Cl)cc1 [AKS-10262-9] | – | – | – | – | – | –
